Experimental findings from US7429582B2, “Dihydro[1,4]oxazino[2,3,4-hi]indazole derivatives as 5-hydroxytryptamine-6 ligands and use thereof in the treatment of attention deficit disorders” (Wyeth, priority 2006, dated 2008) are described below.

Molecules are shown by their SMILES. Structures can show the parent of a compound that is named as a salt.

The target in this assay is T1, human cloned 5-HT6 receptors (Homo sapiens, UniProt P50406).
T1 construct: expressed in transfected cells; host or cells: Hela cells
T1 sequence (P50406 whole entry): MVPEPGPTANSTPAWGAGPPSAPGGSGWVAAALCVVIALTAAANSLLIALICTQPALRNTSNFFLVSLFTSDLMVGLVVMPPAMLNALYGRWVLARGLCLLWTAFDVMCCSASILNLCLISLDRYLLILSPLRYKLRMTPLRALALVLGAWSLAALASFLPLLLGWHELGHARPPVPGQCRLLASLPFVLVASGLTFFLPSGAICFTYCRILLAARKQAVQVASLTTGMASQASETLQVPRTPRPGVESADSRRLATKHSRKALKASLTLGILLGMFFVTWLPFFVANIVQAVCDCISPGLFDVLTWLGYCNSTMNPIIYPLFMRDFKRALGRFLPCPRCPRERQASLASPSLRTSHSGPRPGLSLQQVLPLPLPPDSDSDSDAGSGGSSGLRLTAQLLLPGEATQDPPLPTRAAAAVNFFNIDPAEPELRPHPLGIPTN
The note with it: [3H]-LSD 3.0 nM, 120 minutes at room temperature, Hela cell membranes; read-out: 5-HT6 Binding Ki.
Experimental: This operation was repeated.
The reaction was allowed to proceed in the dark for 120 minutes at room temperature, at which time, the bound ligand-receptor complex was filtered off on a 96 well unifilter with a Packard Filtermate® 196 Harvester. The bound complex caught on the filter disk was allowed to air dry and the radioactivity is measured in a Packard TopCount® equipped with six photomultiplier detectors, after the addition of 40.0 μl Microscint®-20 scintillant to each shallow well. The unifilter plate was heat-sealed and counted in a PackardTopCount® with a tritium efficiency of 31.0%.
Binding in the presence of varying concentrations of test compound was expressed as a percentage of specific binding in the absence of test compound. The results were plotted as log % bound versus log concentration of test compound. […] A linear regression line of data points was plotted, from which the IC50 value is determined and the Ki value is determined based upon the following equation: Ki=IC50/(1+L/KD) where L was the concentration of the radioactive ligand used and KD is the dissociation constant of the ligand for the receptor, both expressed in nM.
One may read the Ki as a dissociation constant, usually derived from enzyme kinetics or from competition with a known ligand. In the case of `CN(C)CC1Cn2nc(S(=O)(=O)c3cccc4ccccc34)c3cccc(c32)O1` (stereo not drawn) [Example 6, N,N-dimethyl-1-[6-(1-naphthylsulfonyl)-2,3-dihydro[1,4]oxazino[2,3,4-hi]indazol-2-yl]methanamine Hydrochloride], the Ki came to 1.6 nM. Consider `O=S(=O)(c1cccc2ccccc12)c1nn2c3c(cccc13)OC(CN1CCCC1)C2` (stereo not drawn) [Example 7, 6-(1-Naphthylsulfonyl)-2-(Pyrrolidin-1-1ylmethyl)-2,3-dihydro[1,4]oxazino[2,3,4-hi]indazole Hydrochloride], for which the inhibition constant Ki is 3 nM.

For the compound `O=S(=O)(c1cccc2ccccc12)c1nn2c3c(cccc13)OC(CN1CCCCC1)C2` (stereo not drawn) [Example 8, 6-(1-Naphthylsulfonyl)-2-(piperidin-1-1ylmethyl)-2,3-dihydro[1,4]oxazino[2,3,4-hi]indazole Hydrochloride], the inhibition constant (Ki) is 160 nM.
